Tests used:
Nrf-2 = Nrf-2 Activation Assay (Nrf-2 Assay); format: cell-based, human; settings: 1 μM compound, 24 hours
Protocol: This assay was developed internally and was designed to determine if the novel test compounds disclosed herein active Nrf-2 and thereby promote resolution of inflammation by the mechanism believed to be responsible for the activity of omaveloxolone.
Briefly, GM03665 Friedreich Ataxia patient fibroblasts were grown in 12 Well Plates (TC Cell+F) (Sarstedt, Numbrecht Germany), at a density of […] in DMEM/F12 (Gibco, ThermoFisher Scientific, Waltham, MA, USA) cell media supplemented with 10% FBS and 1% Pen/Strep. Cells were left to rest overnight at 37° C. in a humidified atmosphere with 5% CO2 to allow attachment of the cells to the culture plate. Before continuing assay visual inspection of each well was done by light microscopy to detect any possible bacterial and fungal contamination. […] After incubation, cell media was removed and total RNA from the cells was isolated using E.Z.N.A.® Total RNA Kit I (Omega Bio-tek, Norcross, Georgia, USA) spin columns, and first-strand cDNA synthesis was carried out using a High Capacity cDNA Reverse Transcription Kit (Applied Biosystems™, Foster City, CA) following the manufacturer's instructions. qPCR analysis of gene expression was performed by mixing SYBR® Green Master Mix (Applied Biosystems™) with synthesized cDNA and forward and reverse primers. […] (60 cycles), and 95° C. for 60 seconds, followed by melt curve analysis at 72-95° C., 0.3° C./sec. The relative expression levels for each gene were calculated with the ΔΔCt method and normalized to the expression of REEP5 and SNRPD3 genes.

[1] = system: frataxin deficient fibroblasts (GM03665); format: cell-based; settings: summary of Table 7
HepG2 cells = assay: Rotenone Oxygraph Assay (high-resolution respirometry of intact HepG2 cells); format: cell-based, human; settings: for active in Complex I by-pass (in words): summary of Table 7 (Rotenone ATP and Rotenone Oxygraph assays)
Protocol: The Oxygraph-2 k (O2k, OROBOROS INSTRUMENTS, Austria) was used for measurements of respiration of intact cells. The respirometry was performed in Dulbecco's Modified Eagle Medium (DMEM) high glucose without supplements. All experiments were performed at 37° C.
HepG2 cells (ATCC collection code HB-8065™) were cultured in 10 cm^2 culture dishes in DMEM high glucose medium supplemented with 10% fetal bovine serum (FBS) and 100 units/mL penicillin and 100 μg/mL streptomycin until approximately 90% confluence was reached. Immediately prior to performing the respirometric assay, the cells were washed with media without FBS, trypsinized and resuspended in DMEM high glucose without FBS.
The final concentration of intact cells in the O2k-chamber was 0.5·10^6/mL. After stabilization of respiration, the Complex I inhibitor, rotenone, at 1 μM final concentration was added to inhibit electron flux via Complex I. Then, compound to be tested was added at 10 μM final concentration, and the change in respiration rate of intact cells was monitored.

GM03665 cells = assay: RSL3 Toxicity Assay (RSL3 Assay); format: cell-based, human; settings: protection of Friedreich's ataxia fibroblasts from RSL3
Protocol: In brief, GM03665 cells (Coriell Institute) were seeded in 96-well plates (Sarstedt) in DMEM cell culture media containing 10% Fetal Bovine serum and 1% Penicillin-Streptomycin (Pen-Strep) antibiotic mix at the amount of 2×10^4/mL (100 μL or 2×10^3 cells per well). Cells were left to rest overnight at 37° C. in a humidified atmosphere with 5% CO2 to allow attachment of the cells to the culture plate. Test compounds were prepared as DMSO stocks (10 mM) and were serially diluted in cell culture media to obtain 2× working solutions. Cell media was discarded and replaced by 50 μL of test compound solutions or cell media with vehicle for control wells. Within 15 minutes, 2× working solution (4 μM) of 1S,3R-RSL3 (CAS #1219810-16-8, Sigma-Aldrich) (diluted from 5 mM DMSO stock in cell culture media) was added. Final reaction volume was 100 μL and final DMSO concentration in reaction was kept below 0.2% (v/v) and equal in all wells. Final RSL3 concentration was 2 μM and test compound final concentrations in reaction were up to 1000 nM. After 24 hours of incubation cell viability was assessed by MTT test. MTT (Sigma-Aldrich) solution 1 mg/mL in 1×PBS (pH=7,4) was prepared 1 hour before the assay and filtered through Filtropur S 0.2 filters (Sarstedt). […] Absorption at 570 and 650 nm was measured using Hidex Sense microplate reader.

Row | Molecule | activation of Nrf-2 responsive genes (in words, FIG. 7) (Nrf-2) | activity in the BSO assay (in words) [1] | active in Complex I by-pass (in words) (HepG2 cells) | activity in the RSL3 Assay (in words) (GM03665 cells) | Rotenone Oxygraph Assay % Increase (Table 7) (HepG2 cells; intact HepG2 cells, rotenone 1 μM, compound 10 μM) | Percent increase in ATP (Rotenone Oxygraph Assay, Table 4) (HepG2 cells; intact HepG2 cells, rotenone 1 μM, compound 10 μM, change in respiration rate) | Nrf-2 Assay (Table 7) (Nrf-2; GM03665 fibroblasts, qPCR of Nrf-2 responsive genes)
1 | CC1=C(C)C(=O)C(CC[C@](C)(O)CC/C=C(\C)CC/C=C(\C)CCC=C2COC2)=C(C)C1=O [Compound E, 2-((R,6E,10E)-3-hydroxy-3,7,11-trimethyl-14-(oxetan-3-ylidene)tetradeca-6,10-dien-1-yl)-3,5,6-trimethylcyclohexa-2,5-diene-1,4-dione] | do not activate |  |  |  |  |  | 
2 | COC1=C(OC)C(=O)C(CCCCCCCCCCO)=C(C)C1=O [Idebenone, reference compound] |  | very weakly active/borderline inactive |  |  |  |  | 
3 | CC1(C)CC[C@]2(NC(=O)C(C)(F)F)CC[C@]3(C)[C@H](C(=O)C=C4[C@@]5(C)C=C(C#N)C(=O)C(C)(C)[C@@H]5CC[C@]43C)[C@@H]2C1 [Omaveloxolone, reference compound] | positive |  | are not | completely inactive |  |  | 
4 | (R)-2-(3-hydroxy-3-methyl-4-(3-(trimethylsilyl)propoxy)butyl)-3,5,6-trimethylcyclohexa-2,5-diene-1,4-dione [Compound M] | do not activate | active | active | active | 56.6 +/− 11.3% | 56.6 +/− 11.3% | Inactive

Reference: US12049455B2, “Compositions and methods for the prevention and/or treatment of mitochondrial disease, including Friedreich's ataxia” (Stealth BioTherapeutics Inc., priority 2019, dated 2024)
